Patent EP0908457B1, “3-(1,2-benzisothiazol- and isoxazol-5-Y1)-2,4(1H,3H)-pyrimidinedione or thione and 3-(1,2-benzisothiazol- and isoxazol-5-y1)-4(3H)-pyrimidinone or thione herbicidal agents” (BASF AKTIENGESELLSCHAFT, priority 1997, dated 1999)

Key:
[1] = tested on: Monochoria vaginalis, Presl.; test: Preemergence weed control under flooded paddy conditions, MOOVA (Monochoria); type: in vivo; settings: preemergence weeds, flooded paddy, herbicidal effect rating 0-9, three to four weeks after treatment
[2] = tested on: Cyperus serotinus, Rottb.; test: Preemergence weed control under flooded paddy conditions, CYPSE (Flatsedge); type: in vivo; settings: for CYPSE: herbicidal effect rating 0-9, three to four weeks after treatment; for herbicidal effect rating, CYPSE: rated three to four weeks after treatment; as to herbicidal effect rating, CYPSE: meaning of each grade not given here
[3] = tested on: Cyperus iria; test: Preemergence weed control under flooded paddy conditions, CYPIR (Rice Flatsedge); type: in vivo; settings: flooded paddy; for CYPIR: herbicidal effect rating 0-9, three to four weeks after treatment; for herbicidal effect rating, CYPIR: rated three to four weeks after treatment; as to herbicidal effect rating, CYPIR: meaning of each grade not given here
[4] = tested on: Echinochloa oryzoides (Ard.) Fritsch.; test: Preemergence weed control under flooded paddy conditions, ECHORC (Watergrass (Calif.)); type: in vivo; settings: flooded paddy; for ECHORC: herbicidal effect rating 0-9, three to four weeks after treatment; for herbicidal effect rating, ECHORC: rated three to four weeks after treatment; as to herbicidal effect rating, ECHORC: meaning of each grade not given here
[5] = tested on: Oryza sativa, (L.) Tebonnet; test: Rice tolerance to post-transplant applications under flooded paddy conditions (Example 187), ORYSAT (Rice, Tebonnet); settings: for ORYSAT: herbicidal effect rating 0-9, three to four weeks after treatment; for herbicidal effect rating ORYSAT: rated three to four weeks after treatment; as to herbicidal effect rating ORYSAT: meaning of each grade not given here
[6] = tested on: Sagittaria pygmaea, L.; test: Preemergence weed control under flooded paddy conditions, SAGPY (Arrowhead (Pygmaea)); type: in vivo; settings: flooded paddy, rated three to four weeks after treatment; also: meaning of each grade not given here
[7] = 0.0320 kg/ha, preemergence weeds
[8] = 0.0620 kg/ha, preemergence weeds
[9] = 0.1250 kg/ha, preemergence weeds
[10] = 0.2500 kg/ha, preemergence weeds
[11] = Rate 0.0320 kg/ha, preemergence weeds
[12] = Rate 0.0620 kg/ha, preemergence weeds
[13] = Rate 0.1250 kg/ha, preemergence weeds
[14] = Rate 0.2500 kg/ha, preemergence weeds
[15] = Rate 0.0320 kg/ha, preemergence
[16] = Rate 0.0620 kg/ha, preemergence
[17] = Rate 0.1250 kg/ha, preemergence
[18] = Rate 0.2500 kg/ha, preemergence

Row | SMILES | MOOVA ([1]; 0.0320 kg/ha) | MOOVA ([1]; 0.0620 kg/ha) | MOOVA ([1]; 0.1250 kg/ha) | MOOVA ([1]; 0.2500 kg/ha) | CYPSE [2, 7] | CYPSE [2, 8] | CYPIR [3, 7] | CYPIR [3, 8] | CYPIR [3, 9] | CYPIR [3, 10] | ECHORC [4, 7] | ECHORC [4, 8] | ECHORC [4, 9] | ORYSAT ([5]; 0.0320 kg/ha) | ORYSAT ([5]; 0.0620 kg/ha) | ORYSAT ([5]; 0.1250 kg/ha) | ORYSAT ([5]; 0.2500 kg/ha) | herbicidal effect rating ORYSAT ([5]; Rate 0.0320 kg/ha) | herbicidal effect rating ORYSAT ([5]; Rate 0.0620 kg/ha) | herbicidal effect rating ORYSAT ([5]; Rate 0.1250 kg/ha) | further results
1 | CC(OS(=O)(=O)c1ccccc1)c1nsc2ccc(-n3c(=O)cc(C(F)(F)F)n(C)c3=O)cc12 (stereo not shown) [Example 415, 2,4(1H,3H)-Pyrimidinedione, 3-[3-(1-hydroxyethyl)-1,2-benzisothiazol-5-yl]-1-methyl-6-(trifluoromethyl)-, benzenesulfonate (ester)] | 5.0 | 5.0 | 5.0 | 8.0 | 0.0 | 0.0 | 0.0 | 0.0 | 2.0 | 6.0 | 0.0 | 0.0 | 3.0 | 3.0 | 4.0 | 5.0 | 9.0 |  |  |  | ECHORC [4, 10]: 9.0
2 | COCCOC(=O)c1nsc2ccc(-n3c(=O)cc(C(F)(F)F)n(C)c3=O)cc12 [Example 411, 1,2-Benzisothiazole-3-carboxylic acid, 5-[3,6-dihydro-3-methyl-2,6-dioxo-4-(trifluoromethyl)-1(2H)-pyrimidinyl]-, 2-methoxyethyl ester] | 9.0 | 9.0 | 9.0 | 9.0 | 0.0 | 2.0 | 0.0 | 2.0 | 3.0 | 9.0 | 0.0 | 0.0 | 0.0 | 0.0 | 0.0 | 2.0 | 5.0 |  |  |  | CYPSE [2, 9]: 7.0; CYPSE [2, 10]: 9.0; ECHORC [4, 10]: 6.0
3 | CN(/N=C/c1nsc2ccc(-n3c(=O)cc(C(F)(F)F)n(C)c3=O)cc12)c1ccccc1 [Example 412, 1,2-Benzisothiazole-3-carboxaldehyde, 5-[3,6-dihydro-3-methyl-2,6-dioxo-4-(trifluoromethyl)-1(2H)-pyrimidinyl]-, 3-(methylphenylhydrazone), (E)-] | 7.0 | 9.0 | 9.0 | 9.0 | 0.0 | 0.0 | 0.0 | 0.0 | 4.0 | 8.0 | 0.0 | 0.0 | 0.0 | 0.0 | 0.0 | 2.0 | 4.0 |  |  |  | CYPSE [2, 9]: 4.0; CYPSE [2, 10]: 6.0
4 | CC(Cl)c1nsc2ccc(-n3c(=O)cc(C(F)(F)F)n(C)c3=O)cc12 (stereo not shown) [Example 416, 2,4(1H,3H)-Pyrimidinedione, 3-[3-(1-chloroethyl)-1,2-benzisothiazol-5-yl]-1-methyl-6-(trifluoromethyl)-] | 7.0 | 7.0 | 7.0 | 9.0 | 0.0 | 0.0 | 4.0 | 4.0 | 4.0 | 8.0 | 0.0 | 3.0 | 3.0 | 6.0 | 7.0 | 9.0 | 9.0 |  |  |  | CYPSE [2, 9]: 0.0; CYPSE [2, 10]: 3.0; ECHORC [4, 10]: 9.0
5 | Cn1c(C(F)(F)F)cc(=O)n(-c2ccc3snc(C(C)(Br)Br)c3c2)c1=O [Example 340, 2,4(1H,3H)-Pyrimidinedione, 3-[3-(1,1-dibromoethyl)-1,2-benzisothiazol-5-yl]-1-methyl-6-(trifluoromethyl)-] |  |  |  |  |  |  |  |  |  |  |  |  |  |  |  |  |  | 5.0 | 6.0 | 7.0 | herbicidal effect rating, CYPSE [2, 11]: 3.0; herbicidal effect rating, CYPSE [2, 12]: 3.0; herbicidal effect rating, CYPSE [2, 13]: 6.0; herbicidal effect rating, CYPSE [2, 14]: 7.0; herbicidal effect rating, CYPIR [3, 11]: 2.0; herbicidal effect rating, CYPIR [3, 12]: 5.0; herbicidal effect rating, CYPIR [3, 13]: 7.0; herbicidal effect rating, CYPIR [3, 14]: 9.0; herbicidal effect rating, SAGPY [6, 11]: 4.0; herbicidal effect rating, SAGPY [6, 12]: 4.0; herbicidal effect rating, SAGPY [6, 13]: 5.0; herbicidal effect rating, SAGPY [6, 14]: 7.0; herbicidal effect rating, ECHORC [4, 11]: 5.0; herbicidal effect rating, ECHORC [4, 12]: 6.0; herbicidal effect rating, ECHORC [4, 13]: 9.0; herbicidal effect rating, ECHORC [4, 14]: 9.0; herbicidal effect rating ORYSAT ([5]; Rate 0.2500 kg/ha): 9.0
6 | Cn1c(C(F)(F)F)cc(=O)n(-c2ccc3snc(C(=O)NS(=O)(=O)CCl)c3c2)c1=O [Example 334, 1,2-Benzisothiazole-3-carboxamide, N-[(chloromethyl)sulfonyl]-5-[3,6-dihydro-3-methyl-2,6-dioxo-4-(trifluoromethyl)-1(2H)-pyrimidinyl]-] |  |  |  |  |  |  |  |  |  |  |  |  |  |  |  |  |  | 0.0 | 0.0 | 3.0 | herbicidal effect rating, CYPSE [2, 11]: 0.0; herbicidal effect rating, CYPSE [2, 12]: 0.0; herbicidal effect rating, CYPSE [2, 13]: 2.0; herbicidal effect rating, CYPSE [2, 14]: 2.0; herbicidal effect rating, CYPIR [3, 11]: 3.0; herbicidal effect rating, CYPIR [3, 12]: 5.0; herbicidal effect rating, CYPIR [3, 13]: 6.0; herbicidal effect rating, CYPIR [3, 14]: 6.0; herbicidal effect rating, SAGPY [6, 11]: 0.0; herbicidal effect rating, SAGPY [6, 12]: 0.0; herbicidal effect rating, SAGPY [6, 13]: 4.0; herbicidal effect rating, SAGPY [6, 14]: 4.0; herbicidal effect rating, ECHORC [4, 11]: 0.0; herbicidal effect rating, ECHORC [4, 12]: 0.0; herbicidal effect rating, ECHORC [4, 13]: 0.0; herbicidal effect rating, ECHORC [4, 14]: 3.0; herbicidal effect rating ORYSAT ([5]; Rate 0.2500 kg/ha): 3.0
7 | C=CCOC(C)c1nsc2ccc(-n3c(=O)cc(C(F)(F)F)n(C)c3=O)cc12 (stereo not shown) [Example 351, 2,4(1H,3H)-Pyrimidinedione, 3-{3-[1-(allyloxy)ethyl]-1,2-benzisothiazol-5-yl}-1-methyl-6-(trifluoromethyl)-] |  |  |  |  |  |  |  |  |  |  |  |  |  |  |  |  |  | 7.0 | 7.0 | 7.0 | herbicidal effect rating, CYPSE [2, 15]: 0.0; herbicidal effect rating, CYPSE [2, 16]: 6.0; herbicidal effect rating, CYPSE [2, 17]: 6.0; herbicidal effect rating, CYPSE [2, 18]: 8.0; herbicidal effect rating, CYPIR [3, 15]: 6.0; herbicidal effect rating, CYPIR [3, 16]: 7.0; herbicidal effect rating, CYPIR [3, 17]: 7.0; herbicidal effect rating, CYPIR [3, 18]: 9.0; herbicidal effect rating, SAGPY [6, 15]: 5.0; herbicidal effect rating, SAGPY [6, 16]: 6.0; herbicidal effect rating, SAGPY [6, 17]: 7.0; herbicidal effect rating, SAGPY [6, 18]: 7.0; herbicidal effect rating, ECHORC [4, 15]: 5.0; herbicidal effect rating, ECHORC [4, 16]: 6.0; herbicidal effect rating, ECHORC [4, 17]: 6.0; herbicidal effect rating, ECHORC [4, 18]: 7.0; herbicidal effect rating ORYSAT ([5]; Rate 0.2500 kg/ha): 9.0
8 | Cn1c(C(F)(F)F)cc(=O)n(-c2ccc3snc(C(=O)CBr)c3c2)c1=O [Example 337, 2,4(1H,3H)-Pyrimidinedione, 3-[3-(bromoacetyl)-1,2-benzisothiazol-5-yl]-1-methyl-6-(trifluoromethyl)-] |  |  |  |  |  |  |  |  |  |  |  |  |  |  |  |  |  | 3.0 | 3.0 | 3.0 | herbicidal effect rating, CYPSE [2, 11]: 0.0; herbicidal effect rating, CYPSE [2, 12]: 0.0; herbicidal effect rating, CYPSE [2, 13]: 0.0; herbicidal effect rating, CYPSE [2, 14]: 9.0; herbicidal effect rating, CYPIR [3, 11]: 0.0; herbicidal effect rating, CYPIR [3, 12]: 0.0; herbicidal effect rating, CYPIR [3, 13]: 6.0; herbicidal effect rating, CYPIR [3, 14]: 9.0; herbicidal effect rating, SAGPY [6, 11]: 0.0; herbicidal effect rating, SAGPY [6, 12]: 0.0; herbicidal effect rating, SAGPY [6, 13]: 0.0; herbicidal effect rating, SAGPY [6, 14]: 3.0; herbicidal effect rating, ECHORC [4, 11]: 2.0; herbicidal effect rating, ECHORC [4, 12]: 2.0; herbicidal effect rating, ECHORC [4, 13]: 6.0; herbicidal effect rating, ECHORC [4, 14]: 6.0; herbicidal effect rating ORYSAT ([5]; Rate 0.2500 kg/ha): 3.0
